Source: US9266848B2, “4-alkoxy-N-(2-hydroxycarbamoyl-2-piperidinyl-ethyl)-benzamide compounds as selective TACE-inhibitors for the treatment of inflammatory diseases” (GALDERMA RESEARCH & DEVELOPMENT, priority 2009, dated 2016)

Key:
TACE enzyme = TACE enzyme (Homo sapiens, UniProt P78536); experiment: Enzymatic test of TACE inhibition; assay type: biochemical
Description: (§1) The products are dissolved so as to obtain a concentration of 10 mM in DMSO.
The substrate is used at 40 μM.

ADAM10 = ADAM10 (Homo sapiens (Human), UniProt O14672); experiment: Selectivity test ADAM10; assay type: biochemical
Description: as §1
The substrate is used at 40 μM.
(§2) The enzymes are purchased from Calbiochem.

MMP1 = MMP1 (Homo sapiens (Human), UniProt P03956); experiment: Selectivity test MMP1; assay type: biochemical
Description: as §1
The substrate is used at 40 μM.
as §2

MMP3 = MMP3 (Homo sapiens (Human), UniProt P08254); experiment: Selectivity test MMP3; assay type: biochemical
Chain of MMP3 (P08254 100-477, species assumed): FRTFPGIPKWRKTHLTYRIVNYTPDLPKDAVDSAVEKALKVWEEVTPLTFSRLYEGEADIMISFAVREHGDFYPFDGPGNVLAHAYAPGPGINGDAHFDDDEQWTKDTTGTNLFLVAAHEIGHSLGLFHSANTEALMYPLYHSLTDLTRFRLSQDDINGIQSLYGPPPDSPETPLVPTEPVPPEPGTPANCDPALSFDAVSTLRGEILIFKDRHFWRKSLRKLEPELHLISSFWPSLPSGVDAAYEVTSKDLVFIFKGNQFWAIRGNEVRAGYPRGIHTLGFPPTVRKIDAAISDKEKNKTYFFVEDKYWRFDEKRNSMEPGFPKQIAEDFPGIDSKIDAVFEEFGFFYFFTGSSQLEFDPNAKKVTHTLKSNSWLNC
Description: as §1
The substrate is used at 40 μM.
as §2

Chain of TACE enzyme (P78536 215-824 limits assumed): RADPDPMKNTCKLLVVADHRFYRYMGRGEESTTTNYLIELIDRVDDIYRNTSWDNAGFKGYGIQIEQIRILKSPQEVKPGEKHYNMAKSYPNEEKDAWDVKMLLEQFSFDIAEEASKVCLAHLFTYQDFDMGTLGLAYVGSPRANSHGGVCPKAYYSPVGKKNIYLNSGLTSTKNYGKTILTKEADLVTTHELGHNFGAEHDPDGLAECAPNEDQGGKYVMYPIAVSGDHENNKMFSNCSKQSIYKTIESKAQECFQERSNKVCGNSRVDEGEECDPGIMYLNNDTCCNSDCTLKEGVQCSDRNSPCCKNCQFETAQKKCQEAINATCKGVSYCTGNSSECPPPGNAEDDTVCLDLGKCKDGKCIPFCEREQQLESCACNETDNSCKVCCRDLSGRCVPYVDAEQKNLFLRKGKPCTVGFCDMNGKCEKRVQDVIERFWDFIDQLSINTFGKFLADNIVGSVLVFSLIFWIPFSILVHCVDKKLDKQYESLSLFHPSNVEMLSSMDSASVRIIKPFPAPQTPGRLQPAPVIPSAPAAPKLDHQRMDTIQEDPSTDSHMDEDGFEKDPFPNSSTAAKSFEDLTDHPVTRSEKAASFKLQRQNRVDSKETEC
Chain of ADAM10 (O14672 214-748, species assumed): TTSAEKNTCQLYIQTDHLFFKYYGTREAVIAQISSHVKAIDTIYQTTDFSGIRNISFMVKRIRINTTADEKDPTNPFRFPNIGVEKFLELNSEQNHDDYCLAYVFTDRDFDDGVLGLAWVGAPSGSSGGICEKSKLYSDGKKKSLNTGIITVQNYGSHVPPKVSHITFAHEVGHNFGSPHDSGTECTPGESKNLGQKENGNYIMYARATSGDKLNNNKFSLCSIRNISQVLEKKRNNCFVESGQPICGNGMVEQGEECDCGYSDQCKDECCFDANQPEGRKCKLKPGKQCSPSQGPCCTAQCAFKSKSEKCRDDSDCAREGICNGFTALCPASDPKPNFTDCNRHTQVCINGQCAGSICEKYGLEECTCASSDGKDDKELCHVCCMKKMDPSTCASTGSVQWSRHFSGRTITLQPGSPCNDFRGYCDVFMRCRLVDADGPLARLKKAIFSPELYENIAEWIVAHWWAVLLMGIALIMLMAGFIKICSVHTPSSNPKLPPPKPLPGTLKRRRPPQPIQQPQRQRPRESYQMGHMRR
Chain of MMP1 (P03956 100-469, species assumed): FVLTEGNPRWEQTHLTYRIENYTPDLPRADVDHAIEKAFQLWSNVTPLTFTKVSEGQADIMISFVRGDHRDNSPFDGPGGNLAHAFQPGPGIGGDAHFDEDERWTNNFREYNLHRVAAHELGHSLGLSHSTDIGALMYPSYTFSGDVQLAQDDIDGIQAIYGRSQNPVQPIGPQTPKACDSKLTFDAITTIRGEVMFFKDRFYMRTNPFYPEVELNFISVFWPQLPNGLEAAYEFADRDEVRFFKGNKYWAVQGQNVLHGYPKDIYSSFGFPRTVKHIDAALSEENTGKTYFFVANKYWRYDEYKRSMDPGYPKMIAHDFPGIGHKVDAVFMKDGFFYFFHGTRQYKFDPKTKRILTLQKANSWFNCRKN

Row | Structure (SMILES) | % TACE inhibition at 10 μM (TACE enzyme) | IC50 (TACE enzyme; fluorescent substrate 40 μM) | IC50 (ADAM10) | IC50 (TACE enzyme; selectivity table) | IC50 (MMP1) | IC50 (MMP3) | melting point
1 | CC#CCOc1ccc(C(=O)NC[C@@H](C(=O)NO)N2CCCCC2)cc1 [Example 1, 4-but-2-ynyloxy-N—((S)-2-hydroxycarbamoyl-2-piperidin-1-ylethyl)benzamide] | 96% | 9 nM | – | – | – | – | –
2 | Cc1cc(COc2ccc(C(=O)NC[C@@H](C(=O)NO)N3CCCCC3)cc2)c2ccccc2n1 [Example 2, N—((S)-2-hydroxycarbamoyl-2-piperidin-1-yl-ethyl)-4-(2-methylquinolin-4-ylmethoxy)benzamide] | 100% | 71 nM | 6400 nM | 71 nM | 9950 nM | – | –
3 | O=C(NC[C@@H](C(=O)NO)N1CCCCC1)c1ccc(OCc2cc(Cl)nc(Cl)c2)cc1 [Example 3, 4-(2,6-dichloropyridin-4-ylmethoxy)-N—((S)-2-hydroxycarbamoyl-2-piperidin-1-ylethyl)benzamide] | 97% | 255 nM | – | – | – | – | –
4 | O=C(NC[C@@H](C(=O)NO)N1CCCCC1)c1ccc(OCc2ccnc(-c3ccccc3)c2)cc1 [Example 4, N—((S)-2-hydroxycarbamoyl-2-piperidin-1-yl-ethyl)-4-(2-phenylpyridin-4-ylmethoxy)benzamide] | 100% | – | – | – | – | – | –
5 | O=C(NC[C@@H](C(=O)NO)N1CCCCC1)c1ccc(OCc2ccncc2)cc1 [Example 5, N—((S)-2-hydroxycarbamoyl-2-piperidin-1-yl-ethyl)-4-(pyridin-4-ylmethoxy)benzamide] | 93% | 108 nM | 3090 nM | 108 nM | – | 6120 nM | –
6 | Cc1ccc(COc2ccc(C(=O)NC[C@@H](C(=O)NO)N3CCCCC3)cc2)c2ccccc12 [Example 7, N—((S)-2-hydroxycarbamoyl-2-piperidin-1-yl-ethyl)-4-(4-methylnaphthalen-1-ylmethoxy)benzamide] | 90% | 91 nM | – | – | – | – | –
7 | O=C(NC[C@@H](C(=O)NO)N1CCCCC1)c1ccc(OCc2ccnc(Br)c2)cc1 [Example 8, 4-(2-bromopyridin-4-ylmethoxy)-N—((S)-2-hydroxycarbamoyl-2-piperidin-1-ylethyl)benzamide] | 91% | – | – | – | – | – | 150 °C
8 | O=C(NC[C@@H](C(=O)NO)N1CCOCC1)c1ccc(OCc2ccncc2)cc1 [Example 9, N—((S)-2-hydroxycarbamoyl-2-morpholin-4-ylethyl)-4-(pyridin-4-ylmethoxy)benzamide] | 92% | 428 nM | – | – | – | – | –
9 | O=C(NC[C@@H](C(=O)NO)N1CCOCC1)c1ccc(OCc2ccnc(-c3ccccc3C(F)(F)F)c2)cc1 [Example 10, N—((S)-2-hydroxycarbamoyl-2-morpholin-4-ylethyl)-4-[2-(2-trifluoromethylphenyl)pyridin-4-yl-methoxy]benzamide] | 90% | 900 nM | – | – | – | – | –
10 | CCN(CC)[C@@H](CNC(=O)c1ccc(OCc2cc(C)nc3ccccc23)cc1)C(=O)NO [Example 11, N—((S)-2-diethylamino-2-hydroxycarbamoyl-ethyl)-4-(2-methylquinolin-4-ylmethoxy)benzamide] | 91% | 232 nM | – | 232 nM | – | – | –
